# Data: ChEMBL document CHEMBL1124634, “Synthesis and antirhinovirus activity of 6-(dimethylamino)-2-(trifluoromethyl)-9-(substituted benzyl)-9H-purines” (J Med Chem, 1989)
# How the values were obtained:
# Human rhinovirus sp. [1] = assay: Antiviral activity against rhinoviral 29 serotype in a plaque inhibition assay using monolayers of M-HeLa cells; format: functional, organism-based
# [2] = Percent inhibitory activity at 2.5 uM against rhinoviral 8 serotype in a plaque inhibition assay using monolayers of M-HeLa cells; format: functional, Homo sapiens
# Human rhinovirus sp. [3] = assay: Antiviral activity against rhinoviral 14 serotype in a plaque inhibition assay using monolayers of M-HeLa cells; format: functional, organism-based
# Human rhinovirus sp. [4] = assay: (§1) Antiviral activity against rhinoviral 9 serotype in a plaque inhibition assay using monolayers of M-HeLa cells; format: functional, organism-based
# Human rhinovirus sp. [5] = assay: Antiviral activity against rhinoviral-1B serotype in a plaque inhibition assay using monolayers of M-HeLa cells; format: functional, organism-based
# Human rhinovirus sp. [6] = assay: Antiviral activity against rhinoviral 2 serotype in a plaque inhibition assay using monolayers of M-HeLa cells; format: functional, organism-based
# Human rhinovirus sp. [7] = assay: Percent inhibitory activity at 8 uM against rhinoviral 5 serotype in a plaque inhibition assay using monolayers of M-HeLa cells; format: functional
# Human rhinovirus sp. [8] = assay: Antiviral activity against rhinoviral 31 serotype in a plaque inhibition assay using monolayers of M-HeLa cells; format: functional, organism-based
# [9] = Percent inhibitory activity at 2.5 uM against rhinoviral 3 serotype in a plaque inhibition assay using monolayers of M-HeLa cells; format: functional, Homo sapiens
# Human rhinovirus sp. [10] = assay: Percent inhibitory activity at 8 uM against rhinoviral 21 serotype in a plaque inhibition assay using monolayers of M-HeLa cells; format: functional
# [11] = Antiviral activity against rhinoviral 13 serotype in a plaque inhibition assay using monolayers of M-HeLa cells; format: functional, cell-based; details: Homo sapiens
# Human rhinovirus sp. [12] = assay: Antiviral activity against rhinoviral-1A serotype in a plaque inhibition assay using monolayers of M-HeLa cells; format: functional, organism-based
# Human rhinovirus sp. [13] = assay: Antiviral activity against rhinoviral 15 serotype in a plaque inhibition assay using monolayers of M-HeLa cells; format: functional, organism-based
# [14] = Percent inhibitory activity at 2.5 uM against rhinoviral 4 serotype in a plaque inhibition assay using monolayers of M-HeLa cells; format: functional, Homo sapiens
# Human rhinovirus sp. [15] = assay: Antiviral activity against rhinoviral-19 serotype in a plaque inhibition assay using monolayers of M-HeLa cells; format: functional, organism-based
# Human rhinovirus sp. [16] = assay: Antiviral activity against rhinoviral-18 serotype in a plaque inhibition assay using monolayers of M-HeLa cells; format: functional, organism-based
# Human rhinovirus sp. [17] = assay: Antiviral activity against rhinoviral 12 serotype in a plaque inhibition assay using monolayers of M-HeLa cells; format: functional, organism-based
# Human rhinovirus sp. [18] = assay: Antiviral activity against rhinoviral 30 serotype in a plaque inhibition assay using monolayers of M-HeLa cells; format: functional, organism-based
# [19] = Percent inhibitory activity at 5 uM against rhinoviral 16 serotype in a plaque inhibition assay using monolayers of M-HeLa cells; format: functional, Homo sapiens
# Human rhinovirus sp. [20] = assay: Percent inhibitory activity at 8 uM against rhinoviral 3 serotype in a plaque inhibition assay using monolayers of M-HeLa cells; format: functional
# Human rhinovirus sp. [21] = assay: Antiviral activity against rhinoviral 4 serotype in a plaque inhibition assay using monolayers of M-HeLa cells; format: functional, organism-based
# [22] = Percent inhibitory activity at 8 uM against rhinoviral 18 serotype in a plaque inhibition assay using monolayers of M-HeLa cells; format: functional, Homo sapiens
# Human rhinovirus sp. [23] = assay: Percent inhibitory activity at 8 uM against rhinoviral 30 serotype in a plaque inhibition assay using monolayers of M-HeLa cells; format: functional
# Human rhinovirus sp. [24] = assay: Percent inhibitory activity at 8 uM against rhinoviral 13 serotype in a plaque inhibition assay using monolayers of M-HeLa cells; format: functional
# Human rhinovirus sp. [25] = assay: Percent inhibitory activity at 8 uM against rhinoviral 29 serotype in a plaque inhibition assay using monolayers of M-HeLa cells; format: functional
# Human rhinovirus sp. [26] = assay: Antiviral activity against rhinoviral 16 serotype in a plaque inhibition assay using monolayers of M-HeLa cells; format: functional, organism-based
# Human rhinovirus sp. [27] = assay: Antiviral activity against rhinoviral 5 serotype in a plaque inhibition assay using monolayers of M-HeLa cells; format: functional, organism-based
# Human rhinovirus sp. [28] = assay: Antiviral activity against rhinoviral 8 serotype in a plaque inhibition assay using monolayers of M-HeLa cells; format: functional, organism-based
# Human rhinovirus sp. [29] = assay: Antiviral activity against rhinoviral 3 serotype in a plaque inhibition assay using monolayers of M-HeLa cells; format: functional, organism-based
# [30] = Percent inhibitory activity at 8 uM against rhinoviral 8 serotype in a plaque inhibition assay using monolayers of M-HeLa cells; format: functional, Homo sapiens
# [31] = as §1; format: functional, cell-based; details: Homo sapiens
# Human rhinovirus sp. [32] = assay: Antiviral activity against rhinoviral 21 serotype in a plaque inhibition assay using monolayers of M-HeLa cells; format: functional, organism-based
# Human rhinovirus sp. [33] = assay: Percent inhibitory activity at 8 uM against rhinoviral 15 serotype in a plaque inhibition assay using monolayers of M-HeLa cells; format: functional
# [34] = Percent inhibitory activity at 8 uM against rhinoviral-18 serotype in a plaque inhibition assay using monolayers of M-HeLa cells; format: functional, Homo sapiens
# Human rhinovirus sp. [35] = assay: Percent inhibitory activity at 8 uM against rhinoviral 14 serotype in a plaque inhibition assay using monolayers of M-HeLa cells; format: functional
# [36] = Percent inhibitory activity at 8 uM against rhinoviral 2 serotype in a plaque inhibition assay using monolayers of M-HeLa cells; format: functional, Homo sapiens
# Human rhinovirus sp. [37] = assay: Percent inhibitory activity at 8 uM against rhinoviral 19s erotype in a plaque inhibition assay using monolayers of M-HeLa cells; format: functional
# Human rhinovirus sp. [38] = assay: Percent inhibitory activity at 8 uM against rhinoviral 4 serotype in a plaque inhibition assay using monolayers of M-HeLa cells; format: functional
# Human rhinovirus sp. [39] = assay: Percent inhibitory activity at 8 uM against rhinoviral 31 serotype in a plaque inhibition assay using monolayers of M-HeLa cells; format: functional
# Human rhinovirus sp. [40] = assay: Antiviral activity against rhinoviral 18 serotype in a plaque inhibition assay using monolayers of M-HeLa cells; format: functional, organism-based
# Human rhinovirus sp. [41] = assay: Antiviral activity against rhinoviral 19 serotype in a plaque inhibition assay using monolayers of M-HeLa cells; format: functional, organism-based
IC50 (Human rhinovirus sp. [1]),IC50 (Human rhinovirus sp. [3]),IC50 (Human rhinovirus sp. [4]),IC50 (Human rhinovirus sp. [5]),IC50 (Human rhinovirus sp. [6]),IC50 (Human rhinovirus sp. [8]),IC50 [11],IC50 (Human rhinovirus sp. [12]),IC50 (Human rhinovirus sp. [13]),IC50 (Human rhinovirus sp. [15]),IC50 (Human rhinovirus sp. [16]),IC50 (Human rhinovirus sp. [17]),IC50 (Human rhinovirus sp. [21]),IC50 (Human rhinovirus sp. [26]),IC50 (Human rhinovirus sp. [32]),Structure (SMILES),Inhibition (Human rhinovirus sp. [7]),Inhibition (Human rhinovirus sp. [10]),Inhibition (Human rhinovirus sp. [23]),Inhibition (Human rhinovirus sp. [24]),Inhibition [30],also measured
4.2 µM,1.2 µM,0.35 µM,0.03 µM,5.7 µM,1.2 µM,2.6 µM,0.1 µM,1 µM,6.7 µM,1.8 µM,2.6 µM,,,,Cc1ccc(Cn2cnc3c(N(C)C)nc(C(F)(F)F)nc32)cc1,18%,40%,,,,Inhibition [2]: 41 µM; Inhibition [9]: 43 µM; Inhibition [14]: 41 µM; IC50 (Human rhinovirus sp. [18]): 2.2 µM; Inhibition [19]: 12%
3 µM,,,0.5 µM,,4.3 µM,4.2 µM,2.3 µM,,9 µM,,6 µM,8.8 µM,2.3 µM,9 µM,CN(C)c1nc(C(F)(F)F)nc2c1ncn2Cc1ccc(S(C)(=O)=O)cc1,40%,,32%,,36%,IC50 (Human rhinovirus sp. [29]): 4.7 µM; IC50 [31]: 3.7 µM; Inhibition (Human rhinovirus sp. [33]): 47%; Inhibition [34]: 29%; Inhibition (Human rhinovirus sp. [35]): 16%; Inhibition [36]: 36%
2.5 µM,4.3 µM,0.9 µM,0.03 µM,6.6 µM,5.3 µM,> 8 µM,0.73 µM,3.3 µM,,,7.4 µM,6.1 µM,,7.4 µM,CN(C)c1nc(C(F)(F)F)nc2c1ncn2Cc1ccc(Cl)cc1,,,,,,IC50 (Human rhinovirus sp. [40]): > 8 µM; IC50 (Human rhinovirus sp. [29]): 6.9 µM; IC50 (Human rhinovirus sp. [41]): 6.5 µM; IC50 (Human rhinovirus sp. [27]): 8 µM; IC50 (Human rhinovirus sp. [28]): 5.7 µM; IC50 (Human rhinovirus sp. [18]): 6.5 µM
4.7 µM,,4.6 µM,0.29 µM,11 µM,,,1.2 µM,,,,4 µM,6.1 µM,1.9 µM,,CN(C)c1ccc(Cn2cnc3c(N(C)C)nc(C(F)(F)F)nc32)cc1,39%,27%,35%,45%,37%,IC50 (Human rhinovirus sp. [40]): 8.9 µM; Inhibition (Human rhinovirus sp. [37]): 23%; Inhibition (Human rhinovirus sp. [33]): 30%; Inhibition (Human rhinovirus sp. [35]): 46%; Inhibition (Human rhinovirus sp. [39]): 41%

# The next lines start with the compound.
Structure (SMILES),IC50 (Human rhinovirus sp. [1]),IC50 (Human rhinovirus sp. [3]),IC50 (Human rhinovirus sp. [4]),IC50 (Human rhinovirus sp. [5]),IC50 (Human rhinovirus sp. [6]),IC50 (Human rhinovirus sp. [8]),IC50 [11],IC50 (Human rhinovirus sp. [12]),IC50 (Human rhinovirus sp. [13]),IC50 (Human rhinovirus sp. [15]),IC50 (Human rhinovirus sp. [16]),IC50 (Human rhinovirus sp. [17]),IC50 (Human rhinovirus sp. [21]),IC50 (Human rhinovirus sp. [26]),IC50 (Human rhinovirus sp. [32]),Inhibition (Human rhinovirus sp. [7]),Inhibition (Human rhinovirus sp. [10]),Inhibition (Human rhinovirus sp. [23]),Inhibition (Human rhinovirus sp. [24]),Inhibition [30],also measured
COc1ccc(Cn2cnc3c(N(C)C)nc(C(F)(F)F)nc32)cc1C,,7.5 µM,1.3 µM,0.2 µM,8 µM,,,2.6 µM,9 µM,8.6 µM,,4.1 µM,5.5 µM,1.9 µM,,,16%,20%,12%,,Inhibition (Human rhinovirus sp. [20]): 28%; Inhibition [22]: 35 µM; Inhibition (Human rhinovirus sp. [25]): 27%; IC50 (Human rhinovirus sp. [27]): > 8 µM; IC50 (Human rhinovirus sp. [28]): > 8 µM
CN(C)c1nc(C(F)(F)F)nc2c1ncn2Cc1cccc(F)c1,2.7 µM,7.1 µM,0.3 µM,0.03 µM,15 µM,,,0.57 µM,3.2 µM,,8 µM,2.3 µM,,0.8 µM,10 µM,34%,,28%,30%,45%,Inhibition (Human rhinovirus sp. [20]): 35%; Inhibition (Human rhinovirus sp. [37]): 28%; Inhibition (Human rhinovirus sp. [38]): 34%; Inhibition (Human rhinovirus sp. [39]): 43%
